In patent US20240254072A1, “DERIVATIVES OF CANNABIDIOL-C4 FOR THE TREATMENT OF EPILEPSY” (priority 2021, published 2024):
“And” between values parts separate entries of the source, which are not always exact repeats. Equal entries are not always repeated. Where two headings read alike, the source gives them in different places.

Tests used:
[1] = test system: pentylenetetrazole-induced generalised seizures; settings: data of EP3160457; cited from earlier work
[2] = test system: Maximal Electroshock generalised seizures; settings: data of EP3160457 / WO 2020/104796; cited from earlier work
inflammation = settings: WO 01/95899; cited from earlier work
[3] = range of toxicology screens, WO 2020/104796; cited from earlier work
[4] = test system: tonic hind limb extensor convulsions induced by electroshock (generalised seizure); experiment: mini-MEST (maximal electroshock seizure threshold) test in the mouse; settings: for CC50 +/- SEM (current producing tonic hind limb extension in 50% of animals) / % change from vehicle (CC50): mouse, i.p., 30 min post dose, diazepam 2.5 mg/kg, Compound I 100 mg/kg, Compound II 150 mg/kg; for CC50 +/- SEM (current producing tonic hind limb extension in 50% of animals): N=6
Method: The maximal electroshock seizure threshold (MEST) test is widely utilized preclinically to evaluate pro- or anti-convulsant properties of test compounds (Loscher et al., 1991).
In the MEST test the ability of a drug to alter the seizure threshold current required to induce hind limb tonic extensor convulsions is measured according to an “up and down” method of shock titration (Kimball et al., 1957). An increase in seizure threshold is indicative of anti-convulsant effect.
The ability of a test compound to alter the stimulus intensity, expressed as current (mA), required to induce the presence of tonic hind limb extensor convulsions, is assessed in the MEST.
Naïve mice were acclimatised to the procedure room in their home cages for up to 7 days, with food and water available ad libitum.
All animals were weighed at the beginning of the study and randomly assigned to treatment groups based on a mean distribution of body weight across groups.
The first animal within a treatment group was given a shock at the expected or estimated CC50 current. For subsequent animals, the current was lowered or raised depending on the convulsions outcome from the preceding animal in log scale intervals.
Data generated from each treatment group were used to calculate the CC50±SEM values for the treatment group.
Vehicle: (5% ethanol, 10% solutol in 85% Saline) was prepared as follows: 1 mL of ethanol, 2 mL of solutol were warmed to 60° ° C., in 17 mL of saline (1:2:17).
The test compounds, described herein as Compound I and Compound II, are as shown as Formula I and Formula II respectively. Test compounds were administered at 100 mg/kg (i.p.) for Compound I and 150 mg/kg (i.p.) for Compound II in a 1:2:17 ethanol:solutol:0.9% saline formulation.
The data for each treatment group were recorded as the number of +'s and 0's at each current level employed and this information is then used to calculate the CC50 value (current required for 50% of the animals to show seizure behaviour)±standard error.
Test compound effects were also calculated as percentage change in CC50 from the vehicle control group.
Significant difference between drug-treated animals and controls were assessed according to Litchfield and Wilcoxon (1949).

[5] = Bioanalysis of plasma and brain concentrations by UPLC-MS/MS; format: in vivo, mice; settings: mouse, i.p., 30 min post-dose, Compound I 100 mg/kg, Compound II 150 mg/kg; for Brain concentration / Brain concentration at 30 min: Location Brain; for Plasma Conc. (individual animal) / concentration at 30 min: Location Plasma; for Brain concentration at 30 min / concentration at 30 min: in vivo
Method: Each animal was humanely killed immediately after production of a convulsion by destruction of the brain from striking the cranium, followed by the confirmation of permanent cessation of the circulation from decapitation under The Humane Killing of Animals under Schedule 1 to the Animals (Scientific Procedures) Act 1986. Terminal blood and brain collection were performed following decapitation.
Blood was collected in Lithium-heparin tubes and centrifuged at 4 °C for 10 minutes at 1500× g. The resulting plasma was removed (>100 μL) and split into 2 aliquots of 0.5 mL Eppendorf tubes containing 10 μL of ascorbic acid (100 mg/mL) for stabilisation. Brains were removed, washed in saline and halved. Each half was placed into separate 2 mL screw cap cryovials, weighed and frozen on cardice.
Bioanalysis experiments were carried out to determine the quantitative measurement of Compound I and Compound II in plasma and brain.
Six mice were dosed with Compound I at 100 mg/kg and another six with Compound II at 150 mg/kg via intraperitoneal (i.p) injection. Sample analysis was performed 30 min post-dose using a sample volume of 40 μL. Following addition of internal standard (in acetonitrile) and Isopropanol samples were protein precipitated by addition of acetonitrile. Samples were centrifuged and supernatant transferred to a clean 96-well plate (with addition of Tween to minimise non-specific binding to plate materials), evaporated to dryness then reconstituted in suitable solvent. The extracts quantified by ultraperformance liquid chromatography-tandem mass spectrometry (UPLC-MS/MS).

[6] = read-out: Mean Plasma Conc., Location Brain
[7] = read-out: Plasma Conc., Location Brain (individual animal)
[8] = read-out: Plasma Conc. (individual animal)

In the case of `C=C(C)[C@@H]1CCC(CO)=C[C@H]1c1c(O)cc(CCCCC)cc1O` [Compound 7-OH-CBD, 7-hydroxy-cannabidiol], the “anticonvulsant effect in PTZ model” value [1] is given as “anticonvulsant effects”, the “anticonvulsant effect in MES model” value [2] is given as “anticonvulsant effects” and the “effect in model of inflammation” value (inflammation) is given as “found to be effective”.

In the case of `C=C(C)[C@@H]1CCC(C)=C[C@H]1c1c(O)cc(CCCC)cc1O` [CBD-C4, Cannabidiol-C4], the “anticonvulsant effect in MES model” value [2] is given as “Therapeutic efficacy was shown” and the toxicology [3] is given as “acceptable toxicology”.

For `C=C(C)[C@@H]1CCC(CO)=C[C@H]1c1c(O)cc(CCCC)cc1O` [Compound I, (1′R,2′R)-4-butyl-5′-(hydroxymethyl)-2′-(prop-1-en-2-yl)-1′,2′,3′,4′-tetrahydro-[1,1′-biphenyl]-2,6-diol], the “occurrence of tonic hindlimb convulsions in treatment group” value ([4]; Compound I 100 mg/kg i.p., 30 min, 6 animals) was “did not have any convulsions”, the “CC50 +/- SEM (current producing tonic hind limb extension in 50% of animals)” value [4] was greater than 131 mA and the Brain concentration [5] was 122.248 µM and 113.886 µM and 107.349 µM and 125.595 µM and 129.784 µM. For the same compound, the “Plasma Conc. (individual animal)” value [5] was 252.278 µM and 248.66 µM and 242.732 µM, the Brain concentration at 30 min [5, 6] was 122 µM and the Brain concentration at 30 min [5, 7] was 131 µM. The concentration at 30 min ([5]; read-out: Mean Plasma Conc.) was 251 µM and the concentration at 30 min [5, 8] was 264 µM.

In the case of `C=C(C)[C@@H]1CCC(CO)=C[C@H]1c1c(O)cc(CCC)cc1O` [Compound 7-OH-CBDV, 7-hydroxy-cannabidivarin], the “anticonvulsant effect in PTZ model” value [1] is given as “anticonvulsant effects” and the “anticonvulsant effect in MES model” value [2] is given as “anticonvulsant effects”.

With `CN1C(=O)CN=C(c2ccccc2)c2cc(Cl)ccc21` [Diazepam, diazepam, reference compound] the “% change from vehicle (CC50)” value [4] was 291%.

For `C=C(C)[C@@H]1CCC(C(=O)O)=C[C@H]1c1c(O)cc(CCCC)cc1O` [Compound II, (1R,6R)-4′-butyl-2′,6′-dihydroxy-6-(prop-1-en-2-yl)-1,4,5,6-tetrahydro-[1,1′-biphenyl]-3-carboxylic acid], the “% change from vehicle (CC50)” value [4] was less than 72%, the “CC50 +/- SEM (current producing tonic hind limb extension in 50% of animals)” value [4] was less than 43 mA and the Brain concentration [5] was 22.356 µM and 22.956 µM and 15.408 µM and 23.332 µM and 19.363 µM. For the same compound, the “Plasma Conc. (individual animal)” value [5] was 856.643 µM and 1008.984 µM and 1144.841 µM and 1209.706 µM and 1141.405 µM, the Brain concentration at 30 min [5, 6] was 19.8 µM and the Brain concentration at 30 min [5, 7] was 15.7 µM. It also gave a concentration at 30 min ([5]; read-out: Mean Plasma Conc.) of 1050 µM and a concentration at 30 min [5, 8] of 960 µM.
